Results: patent publication US20250171434A1, “SEC61 INHIBITORS AND USE THEREOF” (KEZAR LIFE SCIENCES, INC., priority 2022, published 2025)
pEC50, pIC50: −log10 of the molar value. Like-named read-outs stand apart in the source and are kept apart here.

Columns and labels:
[1] = system: PD1-ss+10aa/Gaussia Luciferase; assay: Dox-Induced PD1-ss-Gluc Assay; format: cell-based
Procedure, shortened: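 The cell line was made by transfecting Flp-In 293 T-REx cells with a PD1 signal sequence+10aa–Gaussia luciferase fusion under T-REx control and selecting with hygromycin and blasticidin. Cells were seeded, and next day compound plus doxycycline was added at 37 °C, 5% CO2.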

[2] = system: IL-2-FL/Gaussia Luciferase; assay: Dox Inducible IL2-FL-Gluc Assay; format: cell-based
Procedure, shortened: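 Reporter is Gaussia luciferase fused to the 3′ end of full-length IL-2 (aa 1-153), expressed from a doxycycline-inducible T-REx construct in stably selected Flp-In 293 cells. Compounds were co-added with doxycycline and incubated at 37° C, 5% CO2.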

[3] = system: HER3-ss+4aa/Gaussia Luciferase; assay: Dox-Inducible Her3-ss-Gluc Assay; format: cell-based
Text: Flp-In 293 T-REx™ cells were transfected with pcDNA™5/FRT/TO plasmid inserted with cDNA encoding Gaussia Luciferase fused to the 3′ end of cDNA encoding HER3 signal sequence plus 4 amino acids (N-[…]-C) (SEQ ID NO: 2). Transfected cells were selected for resistance to the selectable markers Hygromycin and Blasticidin to create a stable cell line that contained the HER3-ss+4aa/Gaussia Luciferase cDNA insert whose expression was regulated under the T-REx™ system. The day before assay, cells were trypsinized and plated in 384-well tissue culture plates. The next day, compound dilutions in DMSO/media containing doxycycline were added to the wells and incubated at 37° C., 5% CO2.
(§1) For chemical structures that include one or more stereoisomers, but are illustrated without indicating stereochemistry, the assay data refers to a mixture of stereoisomers.

[4] = system: TNFα-FL/Gaussia Luciferase; assay: Dox Induced TNFα-FL-Gluc Assay; format: cell-based
Text: Flp-In 293 T-REx™ cells were transfected with pcDNA™5/FRT/TO plasmid inserted with cDNA encoding Gaussia Luciferase fused to the 3′ end of cDNA encoding full length TNFα (amino acids 1-233). Transfected cells were selected for resistance to the selectable markers Hygromycin and Blasticidin to create a stable cell line that contained the TNFα-FL/Gaussia Luciferase cDNA insert whose expression was regulated under the T-REx™ system. The day before assay, cells were trypsinized and plated in 384-well tissue culture plates. The next day, compound dilutions in DMSO/media containing doxycycline were added to the wells and incubated at 37° C., 5% CO2.
as §1

[5] = system: multiple myeloma cell line NCI-H929; assay: H929 Cell Viability Assay; format: cell-based, human; details: Homo sapiens; for pEC50: NCI-H929 cells, 48 hours, Celltiter-Glo, read-out: 48 hr H929 Viability Celltiter-Glo: Mean EC50; for EC50: NCI-H929, 48 h, read-out: 48 hr H929 Viability Celltiter-Glo: Mean EC50 (nM)
Procedure, shortened: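 Plate the myeloma cells in RPMI 1640 with 10% FBS, add serially diluted compound, incubate for 48 hours at 37° C, then add CellTiter-Glo and read luciferase signal.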

[6] = system: multiple myeloma cell line U266B1; assay: U266 Cell Viability Assay; format: cell-based; details: Homo sapiens; for pEC50: U-266, U266B1 cells, 48 hours, Celltiter-Glo, read-out: 48 hr U266 Viability Celltiter-Glo: Mean EC50; for EC50: U-266, 48 h, read-out: 48 hr U266 Viability Celltiter-Glo: Mean EC50 (nM)
Procedure, shortened: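 48 h treatment, 37° C./5% CO2, RPMI 1640 + 10% FBS; viability by CellTiter-Glo luminescence.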

[7] = Liver Microsome Stability Assay, mouse; format: in vitro ADME; details: mouse liver microsomes 1.0 mg/mL, 1.0 uM compound, 37° C., 1 mM NADPH
Procedure, shortened: (§2)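 Stability was judged from samples quenched at 0 and 30 minutes after incubating 1.0 uM compound with 1.0 mg/mL liver microsomes at 37° C, plus or minus 1 mM NADPH, in 0.1 M potassium phosphate containing 0.4% DMSO.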

[8] = Liver Microsome Stability Assay, rat; format: in vitro ADME; details: rat liver microsomes 1.0 mg/mL, 1.0 uM compound, 37° C., 1 mM NADPH
Procedure, shortened: as §2

[9] = Liver Microsome Stability Assay, monkey; format: in vitro ADME; details: monkey liver microsomes 1.0 mg/mL, 1.0 uM compound, 37° C., 1 mM NADPH
Procedure, shortened: as §2

[10] = Liver Microsome Stability Assay, human; format: in vitro ADME; details: human liver microsomes 1.0 mg/mL, 1.0 uM compound, 37° C., 1 mM NADPH
Procedure, shortened: as §2

CD47(ss + 10)Gluc = assay: Dox-Induced CD47-ss-Gluc Assay; format: cell-based; details: Flp-In 293 T-REx cells, 24 hours with doxycycline; Table 1; read-out: 24 hr Dox Inducible CD47(ss + 10)Gluc 293FRT/TO: Mean IC50
[11] = system: IL6R-ss+10aa/Gaussia Luciferase; assay: Dox-induced IL-6R-ss-Gluc Assay; format: cell-based; details: Table 1; for pIC50: Flp-In 293 T-REx cells, 24 hours with doxycycline, read-out: 24hr Dox Inducible IL6R(ss + 10)Gluc 293FRT/TO: Mean IC50; for 24hr Dox Inducible IL6R(ss + 10)Gluc 293FRT/TO: IL6R/PD1: ratio of IC50s IL6R/PD1
Procedure, shortened: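 Flp-In 293 T-REx cells stably carrying a doxycycline-inducible IL6R signal sequence+10 aa fused to Gaussia luciferase. Cells plated the day before; compound dilutions added in DMSO/media containing doxycycline and incubated at 37 °C, 5% CO2.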

[12] = Flp-In 293 T-REx cells, 24 hours with doxycycline; Table 3; read-out: 24 hr Dox Inducible PD1ssGluc 293FRT/TO: Mean IC50
[13] = Flp-In 293 T-REx cells, 24 hours with doxycycline; Table 3; read-out: 24 hr Dox Inducible IL2FLGluc 293FRT/TO: Mean IC50
[14] = ratio of IC50s IL2/PD1; Table 3
[15] = Flp-In 293 T-REx cells, 24 hours with doxycycline; Table 3; read-out: 24 hr Dox Inducible Her3(ss + 4)Gluc 293FRT/TO: Mean IC50
[16] = Flp-In 293 T-REx cells, 24 hours with doxycycline; Table 3; read-out: 24 hr Dox Inducible TNFaFLGluc 293FRT/TO: Mean IC50
[17] = ratio of IC50s TNF/PD1; Table 3
[18] = read-out: 24 hr Dox Inducible PD1ssGluc 293FRT/TO: Mean IC50; Flp-In 293 T-REx cells, 24 hours with doxycycline; Table 3
[19] = read-out: 24 hr Dox Inducible IL2FLGluc 293FRT/TO: Mean IC50; Flp-In 293 T-REx cells, 24 hours with doxycycline; Table 3
[20] = read-out: 24 hr Dox Inducible Her3(ss + 4)Gluc 293FRT/TO: Mean IC50; Flp-In 293 T-REx cells, 24 hours with doxycycline; Table 3
[21] = read-out: 24 hr Dox Inducible TNFaFLGluc 293FRT/TO: Mean IC50; Flp-In 293 T-REx cells, 24 hours with doxycycline; Table 3
[22] = Flp-In 293 T-REx cells, 24 hours with doxycycline; Table 1; read-out: 24 hr Dox Inducible PD1ssGluc 293FRT/TO: Mean IC50
[23] = Flp-In 293 T-REx cells, 24 hours with doxycycline; Table 1; read-out: 24 hr Dox Inducible IL2FLGluc 293FRT/TO: Mean IC50
[24] = ratio of IC50s IL2/PD1; Table 1

| pIC50 [1, 12] | pIC50 [2, 13] | pIC50 [3, 15] | pIC50 [4, 16] | pEC50 [5] | pEC50 [6] | Liver Microsome Stability (Multiple Species): Mouse - % Remaining after 30 min w/ NADPH (%) [7] | Liver Microsome Stability (Multiple Species): Rat - % Remaining after 30 min w/ NADPH (%) [8] | Liver Microsome Stability (Multiple Species): Monkey - % Remaining after 30 min w/ NADPH (%) [9] | Liver Microsome Stability (Multiple Species): Human - % Remaining after 30 min w/ NADPH (%) [10] | Compound | 24 hr Dox Inducible IL2FLGluc 293FRT/TO: IL2/PD1 [2, 14] | 24 hr Dox Inducible TNFaFLGluc 293FRT/TO: TNF/PD1 [4, 17] | further results |
| --- | --- | --- | --- | --- | --- | --- | --- | --- | --- | --- | --- | --- | --- |
| 7.96 | 5.81 | 5.94 | 5.07 | 4.99 | < 4.60 | 78% | 17% | 5% | 8% | O=C(Nc1nc(/C=C/c2ncn(C3CC3)c2Cl)cs1)c1cc(Cl)cn1Cc1ccnc(F)c1 [Compound A12] | 150 | 807 |  |
| 6.19 | < 4.60 | < 4.60 | < 4.60 | < 4.60 | < 4.60 | 53% | 19% | 1% | <1% | O=C1CCn2cc(/C=C/c3csc(NC(=O)c4cccn4Cc4ccnc(F)c4)n3)nc2N1 [Compound B3, (E)-1-((2-fluoropyridin-4-yl)methyl)-N-(4-(2-(7-oxo-5,6,7,8-tetrahydroimidazo[1,2-a]pyrimidin-2-yl)vinyl)thiazol-2-yl)-1H-pyrrole-2-carboxamide] | >39 | >38 |  |
| 7.89 | 5.78 | 6.09 | 5.15 | 5.06 | 4.71 | 7% | 1% | <1% | <1% | O=C(Nc1nc(/C=C/c2ccc(OC(F)F)cn2)cs1)c1cccn1Cc1ccnc(F)c1 [Compound B4, (E)-N-(4-(2-(5-(difluoromethoxy)pyridin-2-yl)vinyl)thiazol-2-yl)-1-((2-fluoropyridin-4-yl)methyl)-1H-pyrrole-2-carboxamide] | 130 | 544 |  |
|  |  |  |  | < 4.60 | < 4.60 | 40% | 3% | 8% | 27% | O=C(Nc1nc(/C=C/c2ccc3occc3c2)cs1)c1cccn1Cc1ccnc(F)c1 [Compound B27, (E)-N-(4-(2-(benzofuran-5-yl)vinyl)thiazol-2-yl)-1-((2-fluoropyridin-4-yl)methyl)-1H-pyrrole-2-carboxamide] |  |  | pIC50 [1, 22]: 6.84; pIC50 [2, 23]: 5.98; 24 hr Dox Inducible IL2FLGluc 293FRT/TO: IL2/PD1 [2, 24]: 5.2; pIC50 (CD47(ss + 10)Gluc): 5.99; pIC50 [11]: 6.05; 24hr Dox Inducible IL6R(ss + 10)Gluc 293FRT/TO: IL6R/PD1 [11]: 6 |
|  |  |  |  | 4.82 | < 4.60 | 72% | 39% | 22% | 70% | O=C(Nc1nc(/C=C/c2cccc(F)c2)cs1)c1cccn1Cc1ccnc(F)c1 [Compound B28, (E)-1-((2-fluoropyridin-4-yl)methyl)-N-(4-(3-fluorostyryl)thiazol-2-yl)-1H-pyrrole-2-carboxamide] |  |  | pIC50 [1, 22]: 6.76; pIC50 [2, 23]: 5.96; 24 hr Dox Inducible IL2FLGluc 293FRT/TO: IL2/PD1 [2, 24]: 6.1; pIC50 (CD47(ss + 10)Gluc): 6.00; pIC50 [11]: 5.92; 24hr Dox Inducible IL6R(ss + 10)Gluc 293FRT/TO: IL6R/PD1 [11]: 7 |

| Compound | pIC50 [1, 12] | pIC50 [2, 13] | pIC50 [3, 15] | pIC50 [4, 16] | pEC50 [5] | pEC50 [6] | Liver Microsome Stability (Multiple Species): Mouse - % Remaining after 30 min w/ NADPH (%) [7] | Liver Microsome Stability (Multiple Species): Rat - % Remaining after 30 min w/ NADPH (%) [8] | Liver Microsome Stability (Multiple Species): Monkey - % Remaining after 30 min w/ NADPH (%) [9] | Liver Microsome Stability (Multiple Species): Human - % Remaining after 30 min w/ NADPH (%) [10] | 24 hr Dox Inducible IL2FLGluc 293FRT/TO: IL2/PD1 [2, 14] | 24 hr Dox Inducible TNFaFLGluc 293FRT/TO: TNF/PD1 [4, 17] | further results |
| --- | --- | --- | --- | --- | --- | --- | --- | --- | --- | --- | --- | --- | --- |
| O=C(Nc1nc(/C=C/c2ncoc2CO)cs1)c1cccn1Cc1ccnc(F)c1 [Compound B1, (E)-1-((2-fluoropyridin-4-yl)methyl)-N-(4-(2-(5-(hydroxymethyl)oxazol-4-yl)vinyl)thiazol-2-yl)-1H-pyrrole-2-carboxamide] |  |  |  |  |  |  | 29% | 3% | 2% | 10% | >2.8 | >2 | pIC50 [1, 18]: 5.05; pIC50 [2, 19]: < 4.60; pIC50 [3, 20]: < 4.60; pIC50 [4, 21]: < 4.60; EC50 [5]: > 25000 nM; EC50 [6]: > 25000 nM |
| CC(C)n1cnc(F)c1/C=C/c1csc(NC(=O)c2cccn2Cc2ccnc(F)c2)n1 [Compound B2, (E)-N-(4-(2-(4-fluoro-1-isopropyl-1H-imidazol-5-yl)vinyl)thiazol-2-yl)-1-((2-fluoropyridin-4-yl)methyl)-1H-pyrrole-2-carboxamide] |  |  |  |  |  |  | 6% | 8% | <1% | <1% | 2 | >5 | pIC50 [1, 18]: 5.35; pIC50 [2, 19]: 5.18; pIC50 [3, 20]: 5.19; pIC50 [4, 21]: < 4.60; EC50 [5]: > 25000 nM; EC50 [6]: > 25000 nM |
